The values below come from ChEMBL document CHEMBL1201862, “PubChem BioAssay data set” (2004).

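Briefly, cells in 96-well plates were exposed to five compound concentrations for 48 h, and endpoints were estimated by linear interpolation. Here, GI50 denotes the concentration required for 50% inhibition of growth.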 The source made the active and inactive calls. Cut-off read from the data, not from the text of the source: active = GI50 up to about 1.1 µM and inactive = higher. A value given as a limit tells only on which side of the number the result lay.

Among the test systems are BT-549; SF-268; NCI-H460; HCT-116; OVCAR-8; SN12C; HCC 2998; A549; SK-MEL-28; Malme-3M; HCT-15; U-251; MOLT-4; SK-MEL-5; NCI-H23; COLO 205; HOP-62; MCF7; KM12.
Assay in all cases: growth of human tumour cells (NCI), 48 h

Consider `O=C(c1ccccc1)C1C(C(=O)c2ccccc2)C(c2ccccc2)N(c2ccccc2)C1c1ccccc1` (stereo unspecified), for which the GI50 in the experiment on BT-549, in the experiment with SF-268, with NCI-H460, in the experiment with HCT-116, in the experiment on OVCAR-8 and in the experiment with SN12C was > 100 µM (inactive) in each case. In addition, the GI50 in the experiment with HCC 2998 was > 100 µM (inactive); in the experiment on A549, > 100 µM (inactive); in the experiment on SK-MEL-28, > 100 µM (inactive); with Malme-3M it was > 100 µM (inactive); with HCT-15, over 100 µM; in the experiment on U-251, > 100 µM (inactive). The GI50 with MOLT-4, in the experiment with SK-MEL-5, in the experiment with NCI-H23, in the experiment on COLO 205, in the experiment on HOP-62 and in the experiment with MCF7 was > 100 µM (inactive) each time.

As for `NS(=O)(=O)c1cc2c(cc1Cl)NC(Cc1ccccc1)NS2(=O)=O` (stereo unspecified) [BENZYLHYDROCHLOROTHIAZIDE], the GI50 in the experiment with BT-549 was > 100 µM (inactive); in the experiment on SF-268 it was > 100 µM (inactive); with NCI-H460, > 100 µM (inactive); in the experiment on HCT-116 it was 46.1 µM (inactive); in the experiment on OVCAR-8, > 100 µM (inactive); with SN12C, > 100 µM (inactive). The GI50 with HCC 2998 is > 100 µM (inactive); in the experiment with A549, > 100 µM (inactive); in the experiment on SK-MEL-28, > 100 µM (inactive); with Malme-3M, > 100 µM (inactive); in the experiment with HCT-15, over 100 µM; in the experiment with KM12 it was > 100 µM (inactive). For the same molecule, the GI50 was > 100 µM (inactive) in the experiment with U-251; > 100 µM (inactive) in the experiment on SK-MEL-5; > 100 µM (inactive) in the experiment with NCI-H23; > 100 µM (inactive) with COLO 205; > 100 µM (inactive) with HOP-62; 60.4 µM (inactive) with MCF7.

Turning to `Nc1nc(Nc2ccc(Cl)cc2)sc1C(=O)c1c[nH]c2ccccc12`, the GI50 in the experiment with BT-549 is 16.9 µM (inactive); with SF-268, 21.4 µM (inactive); with NCI-H460 it was 6.92 µM (inactive); in the experiment on HCT-116, 11.1 µM (inactive); in the experiment on SN12C, 15.5 µM (inactive); in the experiment with HCC 2998, 11.3 µM (inactive). Also, the GI50 in the experiment on A549 was 13.6 µM (inactive); with SK-MEL-28, 15.4 µM (inactive); in the experiment on Malme-3M, 16.4 µM (inactive); with HCT-15 it was 3.87 µM; in the experiment with KM12 it was 14 µM (inactive); in the experiment on U-251, 12.2 µM (inactive). The GI50 in the experiment with SK-MEL-5 is 12 µM (inactive); in the experiment with NCI-H23, 13.4 µM (inactive); with COLO 205 it was 3.8 µM (inactive); in the experiment with HOP-62, 21 µM (inactive); with MCF7, 13.8 µM (inactive).

For `Cc1n[nH]c(=O)n1N1C(=O)CCCC1=O`, the GI50 with BT-549, in the experiment on SF-268, in the experiment with HCT-116, in the experiment on OVCAR-8, in the experiment with SN12C and in the experiment with HCC 2998 was > 100 µM (inactive) in each case. Moreover, the GI50 is > 100 µM (inactive) with A549; > 100 µM (inactive) in the experiment with Malme-3M; > 100 µM (inactive) in the experiment with U-251; 22.6 µM (inactive) in the experiment with MOLT-4; > 100 µM (inactive) in the experiment on SK-MEL-5; > 100 µM (inactive) in the experiment with NCI-H23. Further, the GI50 in the experiment with COLO 205, in the experiment with HOP-62 and with MCF7 was > 100 µM (inactive) in each case.

For `COC(=O)/C=C\[C@@H]1[C@H](C)N1S(=O)(=O)c1ccc(C)cc1` (stereo partly specified), the GI50 in the experiment on BT-549, with SF-268, with NCI-H460, in the experiment with HCT-116, with OVCAR-8 and in the experiment with SN12C was > 100 µM (inactive) each time. For the same molecule, the GI50 with HCC 2998 is > 100 µM (inactive); with A549, > 100 µM (inactive); with SK-MEL-28, > 100 µM (inactive); in the experiment with Malme-3M it was > 100 µM (inactive); with HCT-15, over 100 µM; in the experiment on U-251 it was > 100 µM (inactive). The GI50 in the experiment with MOLT-4, in the experiment on SK-MEL-5, in the experiment with NCI-H23, in the experiment with COLO 205, in the experiment with HOP-62 and in the experiment with MCF7 was > 100 µM (inactive) in each case.

As for `CC12CC(C/C1=N/O)C(C)(C)C2` (stereo unspecified), the GI50 in the experiment with BT-549, in the experiment on SF-268, in the experiment with NCI-H460, with HCT-116, in the experiment with OVCAR-8 and in the experiment with SN12C was > 100 µM (inactive) in each case. Also, the GI50 in the experiment with HCC 2998, with A549, with SK-MEL-28, in the experiment with Malme-3M, in the experiment with KM12 and in the experiment with U-251 was > 100 µM (inactive) each time. In addition, the GI50 with SK-MEL-5, with NCI-H23, with COLO 205, with HOP-62 and in the experiment with MCF7 was > 100 µM (inactive) throughout.

As for `COC(=O)[C@H]1CO[C@H]2C/C(C)=C/CC/C(C)=C/CC[C@@]3(C)O[C@@H]3C[C@H]21`, the GI50 is 7.8 µM (inactive) in the experiment with BT-549; 19.6 µM (inactive) with SF-268; 9.73 µM (inactive) in the experiment on NCI-H460; 9.91 µM (inactive) with HCT-116; 14.7 µM (inactive) with OVCAR-8; 10.8 µM (inactive) with SN12C. The GI50 in the experiment with HCC 2998 was 9.38 µM (inactive); with A549 it was 16.3 µM (inactive); in the experiment on SK-MEL-28 it was 13.4 µM (inactive); with HCT-15, 9.12 µM; in the experiment with KM12, 9.57 µM (inactive); in the experiment on U-251, 18.6 µM (inactive). For the same molecule, the GI50 in the experiment with MOLT-4 was 10.4 µM (inactive); with SK-MEL-5 it was 8.2 µM (inactive); in the experiment on NCI-H23, 17.5 µM (inactive); in the experiment on COLO 205 it was 10.8 µM (inactive); in the experiment with HOP-62, 15.8 µM (inactive); in the experiment on MCF7, 16.9 µM (inactive).

For `O=C(O)C1CCCCC1c1c2ccc(=O)cc-2oc2cc(O)ccc12` (stereo unspecified), the GI50 with BT-549 was 47.6 µM (inactive); in the experiment on SF-268 it was 33.7 µM (inactive); with NCI-H460, 32.4 µM (inactive); with HCT-116, 31 µM (inactive); with OVCAR-8, 26.5 µM (inactive); in the experiment with SN12C it was 41.7 µM (inactive). Also, the GI50 is 31 µM (inactive) with HCC 2998; 38.4 µM (inactive) in the experiment on A549; 35.6 µM (inactive) with SK-MEL-28; 29.7 µM (inactive) in the experiment with Malme-3M; 34.6 µM in the experiment with HCT-15; 19.9 µM (inactive) with KM12. Moreover, the GI50 with U-251 was 30.5 µM (inactive); in the experiment with MOLT-4 it was 23.8 µM (inactive); in the experiment on SK-MEL-5 it was 36.2 µM (inactive); in the experiment with NCI-H23, 29.8 µM (inactive); with COLO 205, 34.1 µM (inactive); in the experiment with MCF7, 27.6 µM (inactive).

Regarding `CSc1nc(O)c(C#N)c(-c2ccccc2)n1`, the GI50 with BT-549, in the experiment with SF-268, in the experiment with NCI-H460, in the experiment on HCT-116, with OVCAR-8 and in the experiment on SN12C was > 100 µM (inactive) in each case. In addition, the GI50 in the experiment with HCC 2998 is > 100 µM (inactive); in the experiment with A549, > 100 µM (inactive); in the experiment with SK-MEL-28, > 100 µM (inactive); in the experiment on HCT-15, over 100 µM; in the experiment with KM12 it was > 100 µM (inactive); in the experiment with U-251, > 100 µM (inactive). The GI50 with MOLT-4, in the experiment on SK-MEL-5, in the experiment on NCI-H23, in the experiment on COLO 205, in the experiment with HOP-62 and in the experiment with MCF7 was > 100 µM (inactive) in each case.

With `CC1(C)Oc2ccc3c(=O)c(-c4ccccc4)c(-c4ccccc4)oc3c2C1C(=O)O` (stereo unspecified), the GI50 in the experiment on BT-549, in the experiment with SF-268, in the experiment with HCT-116, in the experiment on OVCAR-8, in the experiment with SN12C and with HCC 2998 was > 100 µM (inactive) each time. In addition, the GI50 in the experiment on A549 is > 100 µM (inactive); in the experiment with Malme-3M it was > 100 µM (inactive); in the experiment on HCT-15, 33.3 µM; in the experiment on U-251 it was > 100 µM (inactive); in the experiment on MOLT-4, 48.3 µM (inactive); in the experiment on SK-MEL-5, > 100 µM (inactive). Moreover, the GI50 in the experiment with NCI-H23, in the experiment with COLO 205, in the experiment with HOP-62 and with MCF7 was > 100 µM (inactive) throughout.

Regarding `COC(=O)CCSC1=CC(=O)c2nc3ccccc3c3ccnc1c23`, the GI50 in the experiment on BT-549 is 17.7 µM (inactive); in the experiment on SF-268 it was 15.1 µM (inactive); in the experiment on NCI-H460, 16.1 µM (inactive); in the experiment on HCT-116 it was 20.1 µM (inactive); in the experiment on OVCAR-8, 17.1 µM (inactive); with SN12C, 19.7 µM (inactive). For the same molecule, the GI50 in the experiment on HCC 2998 was 14.3 µM (inactive); in the experiment on A549 it was > 93.1 µM (inactive); in the experiment on SK-MEL-28, 21.9 µM (inactive); with HCT-15, 13.6 µM; with KM12, 16.2 µM (inactive); in the experiment with U-251, 32.4 µM (inactive). Moreover, the GI50 with MOLT-4 is 9.95 µM (inactive); with SK-MEL-5, 18.8 µM (inactive); in the experiment with NCI-H23, 15.6 µM (inactive); in the experiment on COLO 205 it was 13.6 µM (inactive); in the experiment on HOP-62, 33 µM (inactive); in the experiment with MCF7 it was 20.2 µM (inactive).
